Laboratory results taken from PMC8648660, “Multifunctional thiosemicarbazones targeting sigma receptors: in vitro and in vivo antitumor activities in pancreatic cancer models” (Cellular Oncology, 2021).
Several values for one entry are separate records, joined by “and”; a condition that tells them apart may be missing. Equal values may be shown once. Entries after “also recorded” stand apart in the source; their conditions may differ.

Key:
sigma-1 receptors = target: T1, sigma-1 receptors (Homo sapiens, UniProt Q99720); assay: Flow cytometry displacement of sigma-1 fluorescent ligand LM1 in human pancreatic cancer cells; type: binding
T1 construct: endogenous in cells; host or cells: PANC-1, MiaPaCa2 (whole cells)
T1 sequence (Q99720 whole entry): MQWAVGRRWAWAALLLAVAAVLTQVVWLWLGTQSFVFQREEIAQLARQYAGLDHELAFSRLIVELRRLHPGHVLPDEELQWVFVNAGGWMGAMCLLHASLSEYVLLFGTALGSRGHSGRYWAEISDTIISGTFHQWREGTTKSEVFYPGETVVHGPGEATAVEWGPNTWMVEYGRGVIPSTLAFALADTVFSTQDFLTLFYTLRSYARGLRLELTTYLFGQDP
Experimental: (§1) (10 µM) was co-incubated. At the end of the incubation periods, the cells were washed twice with PBS, detached with […] Cell Dissociation Solution (Sigma Chemical Co.) for 10 min at 37 °C, centrifuged at 13,000 g for 5 min and resuspended in 500 µl PBS. Fluorescence was recorded using a Bio-Guava® easyCyte™ 5 Flow Cytometry System (Millipore, Billerica, MA, USA), equipped with a 530 nm band pass filter. For each analysis, 50,000 events were collected and analyzed using InCyte software (Millipore).

[1] = Systemic toxicity and hematochemical parameters of treated PANC-1 tumor-bearing mice; conditions: PANC-1 tumor-bearing mice, 30 days treatment
Experimental: (§3) 2 × 10^5 PANC-1 or Mia-PaCa2 cells were inoculated subcutaneously in the right flank of 6-week old C57BL/6 female nude mice (Charles River Laboratories Italia, Calco), housed (5 per cage) under a 12 h light/dark cycle, with food and drinking water provided ad libitum. Tumor growth was measured daily by caliper, according to the equation (LxW^2)/2, where L = tumor length and W = tumor width. […] Tumor volumes and animal weights were monitored daily. Animals were euthanized at day 18 or 36 after randomization with zolazepam (0.2 ml/kg) and xylazine (16 mg/kg). […] Red blood cell (RBC) count, hemoglobin (Hb), white blood cell (WBC) count, platelet (PLT) count, lactate dehydrogenase (LDH), aspartate aminotransferase (AST), alanine aminotransferase (ALT), alkaline phosphatase (AP), creatinine and creatine phosphokinase (CPK) were measured in blood samples collected immediately after euthanasia, using commercially available kits from Beckman Coulter Inc (Beckman Coulter, Miami, FL, USA).
(§4) Blood was collected immediately after euthanasia and analyzed for red blood cells (RBC) count, hemoglobin (Hb), white blood cells (WBC) count, platelets (PLT) count, lactate dehydrogenase (LDH), aspartate aminotransferase (AST), alanine aminotransferase (ALT), alkaline phosphatase (AP), creatinine, creatine phosphokinase (CPK). Data are presented as means ± SD.

caspase 3 = assay: Caspase 3 activity assay in pancreatic cancer cells; type: cell-based, human and murine; conditions: 2 h
Experimental: (§2) Caspase 3, caspase 7 and caspase 9 activation was measured using a Caspase 3/7 Fluorescence Assay kit (Cayman Chemical, Ann Arbor, MI, USA) and a Caspase 9 fluorometric assay kit (Enzo Life Science, Roma, Italy). The results are expressed as nmol of the hydrolyzed substrate of each caspase/mg cellular proteins, according to a previously set titration curve.

mitochondrial ROS = assay: Mitochondrial ROS measurement (MitoSOX); type: cell-based, human and murine; conditions: 50 µM, 2 h
Experimental: Intra-mitochondrial ROS was measured using fluorescent probe MitoSOX as per manufacturer’s instructions (Invitrogen). To measure total ROS, cells were incubated with the ROS-sensitive probe 5-(and-6)-chlorometyl-20,70-dichlorodihydro-fluorescein diacetate-acetoxymethyl ester ([…]; DCFDA-AM) as described by Riganti et al.. The results are expressed as nmol/mg mitochondrial or cellular protein, respectively.

PANC02 cells = assay: Cell viability MTT assay 48 h; type: cell-based, murine; conditions: Mus musculus, MTT 48 h, read-out: Activity EC50 ± SEM, PANC02
Experimental: Cell viability was assessed using a MTT assay at 48 h. On day 1, 25,000 cells/well were seeded into 96-well plates in 100 µl culture medium. On day 2, drugs at concentrations ranging from 1 µM to 100 µM were added. In all experiments the drug-solvents (EtOH, DMSO) were added as controls to evaluate possible solvent cyto-toxicities. After the established incubation time with drugs (48 h), MTT (0.5 mg/ml) was added to each well, and after 3–4 h incubation at 37 °C, the supernatants were removed. The formazan crystals formed were solubilized using 100 µl DMSO/EtOH (1:1) after which the absorbance values at 570 and 630 nm were determined using a microplate reader Victor 3 from PerkinElmer Life Sciences.

[2] = mouse, in vivo
Experimental: as §3, §4

MiaPaCa2 xenografts = assay: In vivo xenograft assay, MiaPaCa2; set-up: species or system mice; conditions: FA4 750 and 1500 nmol i.p. daily, 15 days
Experimental: 2 × 10^5 PANC-1 or Mia-PaCa2 cells were inoculated subcutaneously in the right flank of 6-week old C57BL/6 female nude mice (Charles River Laboratories Italia, Calco), housed (5 per cage) under a 12 h light/dark cycle, with food and drinking water provided ad libitum. Tumor growth was measured daily by caliper, according to the equation (LxW^2)/2, where L = tumor length and W = tumor width. When tumors reached a volume of 100 mm^3, the mice (n = 8/group) were randomized in the following groups and treated daily for 15 days or 30 days intraperitoneally as reported: (1) Vehicle group (100 µl saline solution), (2) FA4^low group (750 nmol FA4 in 100 µl saline solution), (3) FA4^high group (1500 nmol FA4 in 100 µl saline solution) and (4) Gemcitabine group (20 mg/kg gemcitabine, twice a week). Tumor volumes and animal weights were monitored daily. Animals were euthanized at day 18 or 36 after randomization with zolazepam (0.2 ml/kg) and xylazine (16 mg/kg). Next, tumors were excised and paraffin-embedded. […] Quantification of the immunohistochemical analyses was performed using ImageJ software (https://imagej.nih.gov/). The staining intensities were expressed as arbitrary units and considered 1 in the vehicle group.

sigma-2 receptors [3] = target: T2, sigma-2 receptors (Rattus norvegicus, UniProt Q5U3Y7); assay: Sigma-2 radioligand binding assay ([3H]-DTG, rat liver membranes)
T2 construct: in rat liver membranes; from tissue; host or cells: rat liver membranes
T2 sequence (Q5U3Y7 whole entry): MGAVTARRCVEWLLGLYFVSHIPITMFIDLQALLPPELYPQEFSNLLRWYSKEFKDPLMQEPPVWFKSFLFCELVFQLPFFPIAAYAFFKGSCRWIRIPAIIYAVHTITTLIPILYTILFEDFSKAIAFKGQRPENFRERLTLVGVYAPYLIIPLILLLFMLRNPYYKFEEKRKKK
Experimental: Sigma-2 receptor binding was carried out according to Berardi et al.. […] Concentrations required to inhibit 50 % of radioligand-specific binding (IC50) were determined using six to nine different concentrations of the drug in two or three experiments with samples in duplicate. Scatchard parameters (Kd and Bmax) and apparent inhibition constant (Ki) values were determined by nonlinear curve fitting, using Prism version 5.0, GraphPad software.

[4] = tested on: GRP78, ATF6, IRE1 and PERK; assay: qRT-PCR of ER stress markers in pancreatic cancer cells; type: cell-based, human and murine; conditions: 50 µM, 2 h
Experimental: Total RNA was extracted using a phenol/chloroform method, after which 1 µg RNA was reverse-transcribed using an iScript Reverse Transcription Supermix kit according to the manufacturer’s instructions (Bio-Rad Laboratories). 25 ng cDNA was amplified using 10 µl of an IQ™ SYBR Green Supermix (Bio-Rad Laboratories). Primers were designed using qPrimer Depot software (http://primerdepot.nci.nih.gov/). qRT-PCR was carried out using an iQ^TM5 cycler (Bio-Rad Laboratories). The cycling conditions used were: 30 s at 95 °C, followed by 40 cycles of denaturation (15 s at 95 °C) and annealing/extension (30 s at 60 °C). The same cDNA preparations were used to quantify the expression of genes of interest and that of the housekeeping gene S14, which was used to normalize the gene expression levels. Relative quantitation of each sample was performed using Gene Expression Quantitation software (Bio-Rad Laboratories). The results were expressed in arbitrary units. For each gene, the expression level in untreated cells was arbitrarily set at “1”.

[5] = tested on: mitochondrial depolarization; assay: Mitochondrial depolarization assay (JC-1); type: cell-based, human and murine; conditions: 50 µM, 2 h, JC1 staining
Experimental: Staining with JC-1 fluorescent probe (Biotium Inc., Freemont, CA, USA) was performed as detailed in Riganti et al.. The resulting fluorescence units were used to calculate the percentage of green-fluorescent (i.e., depolarized) mitochondria versus red-fluorescent (i.e., polarized) mitochondria.

caspase 9 = assay: Caspase 9 activity assay in pancreatic cancer cells; type: cell-based, human and murine; conditions: 2 h
Experimental: as §2

sigma-2 receptors [6] = target: T3, sigma-2 receptors (Homo sapiens, UniProt Q5BJF2); assay: Flow cytometry displacement of sigma-2 fluorescent ligand NO1 in human pancreatic cancer cells; type: binding
T3 construct: endogenous in cells; host or cells: MiaPaCa2, PANC-1, AsPC1 (whole cells)
T3 sequence (Q5BJF2 whole entry): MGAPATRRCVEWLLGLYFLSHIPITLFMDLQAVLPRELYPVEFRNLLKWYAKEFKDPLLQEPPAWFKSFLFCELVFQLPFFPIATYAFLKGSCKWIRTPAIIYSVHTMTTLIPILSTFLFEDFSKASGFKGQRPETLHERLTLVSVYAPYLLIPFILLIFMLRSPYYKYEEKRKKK
Experimental: as §1, with “Flow cytometry studies to detect receptor densities and ligand binding affinities were carried out according to Abate et al. and Niso et al., for the sigma-1 and sigma-2 receptors, respectively. […]” for “(10 µM) was co-incubated.”, “USA)” for “USA),”

CN(C)C(=S)N/N=C1\C(=O)N(CCCCN2CCC3(CC2)OCc2ccccc23)c2ccccc21 [FA4, (Z)-2-(1-(4-(3 H-spiro[isobenzofuran-1,4’-piperidine]-1’-yl)butyl)-2-oxoindolin-3-ylidene)-N,N-dimethylhydrazinecarbothioamide]
IC50 (sigma-1 receptors; Flow Cytometry, IC50 ± SEM, Sigma-1, MiaPaCa2, MiaPaCa2 cells, displacement of LM1): 53.2 ± 5.6 nM
IC50 (sigma-1 receptors; Flow Cytometry, IC50 ± SEM, Sigma-1, PANC-1, PANC-1 cells, displacement of LM1): 51.3 ± 4.3 nM
IC50 (sigma-1 receptors; IC50 at sigma-1 receptor by flow cytometry (discussion), PANC-1 and MiaPaCa2 cells): ~50 nM
lower affinity for the sigma-1 receptor compared to the sigma-2 receptor (sigma-1 receptors; flow cytometry IC50 values): 5 fold
treatment-related deaths, weight loss, abnormalities in behavior [1]: No treatment-related deaths, weight loss or abnormalities in mouse behavior were observed
caspase 3 activation (caspase 3; 50 µM, MiaPaCa2, PANC-1, AspC1, KP02, PANC02 cells): activated caspase 3 in all the cell lines investigated; also recorded: most potent inducer of caspase 3 in all cell lines tested
induction of caspases 3, 7, 9 at IC50 concentration (caspase 3; concentration corresponding to IC50 in each cell line): significant inducer of caspases in all the cell lines analyzed, except for MiaPaCa2
mitochondrial ROS (mitochondrial ROS): increased mitochondrial ROS in all the cell lines tested, except MiaPaCa2
EC50 (PANC02 cells): 1940 ± 500 nM
blood cell counts and hemato-chemical parameters vs control [2]: no significant differences
tumor growth (MiaPaCa2 xenografts): ineffective at both dosages
Ki (sigma-2 receptors [3]): 15.8 ± 3.6 nM
mRNA expression of ER stress markers GRP78, ATF6, IRE1, PERK [4]: increased upon treatment with FA4 in all the cells tested, except in MiaPaCa2 cells
mitochondrial depolarization [5]: all FA4-treated cells had depolarized (i.e., damaged) mitochondria, except MiaPaCa2
activation of caspase 9 and caspase 3 with mitoquinol (caspase 9; 50 µM FA4 plus 0.4 µM mitoquinol): did not find any activation of caspase 9 and caspase 3
caspase 9 activation (caspase 9; 50 µM): observed in all the cells in which FA4 increased mitochondrial ROS and depolarization
IC50 (sigma-2 receptors [6]; Flow Cytometry, IC50 ± SEM, Sigma-2, AspC1, AspC1 cells, displacement of NO1): 10.6 ± 2.2 nM
IC50 (sigma-2 receptors [6]; Flow Cytometry, IC50 ± SEM, Sigma-2, MiaPaCa2, MiaPaCa2 cells, displacement of NO1): 9.13 ± 1.1 nM
IC50 (sigma-2 receptors [6]; Flow Cytometry, IC50 ± SEM, Sigma-2, PANC-1, PANC-1 cells, displacement of NO1): 11.4 ± 2.3 nM
IC50 (sigma-2 receptors [6]; IC50 at sigma-2 receptors by flow cytometry, across MiaPaCa2, PANC-1, Aspc1 and (murine) KP02 cells): 9.13 to 11.6 nM and ~10 nM
